# Results: patent publication US6495693B2, “N-(aryl/heteroaryl) amino acid derivatives, pharmaceutical compositions comprising same, and methods for inhibiting β-amyloid peptide release and/or its synthesis by use of such compounds” (Athena Neurosciences, Inc., priority 1996, dated 2002)
row,melting point [°C],Compound
1,53.5 to 56,"COC(=O)[C@H](CC(=O)O)NC(=O)C(C)Nc1ccc(Cl)c(Cl)c1 (mixture of isomers) [Example 18, N-[N-(3,4dichlorophenyl)-D,L-alanyl]-L-aspartic acid methyl ester]"
2,177 to 179,"CC(Nc1ccc(Cl)c(Cl)c1)C(=O)NC(=O)[C@@H](N)Cc1ccccc1 (mixture of isomers) [Example 36, N-[N-(3,4dichlorophenyl)-D,L-alanyl]-L-phenylalanine amide]"
3,55 to 60,"COC(=O)[C@H](Cc1c[nH]cn1)NC(=O)C(C)Nc1ccc(Cl)c(Cl)c1 (mixture of isomers) [Example 46, N-[N-(3,4-dichlorophenyl)-D,L-alanyl]-L-histidine methyl ester]"
4,93 to 95,"COC(=O)[C@H](C)NC(=O)C(C)Nc1cc(F)cc(F)c1 (mixture of isomers) [Example 49, N-[N-(3,5-difluorophenyl)-D,L-alanyl]-L-alanine methyl ester]"
5,93 to 95,"CCCC[C@H](NC(=O)C(C)Nc1cc(F)cc(F)c1)C(=O)OC (mixture of isomers) [Example 50, N-[N-(3,5-difluorophenyl)-D,L-alanyl]-(S)-2-aminohexanoic acid methyl ester]"
6,156 to 161,"CCCC[C@H](N)C(=O)NC(=O)[C@H](C)Nc1ccc(Cl)c(Cl)c1 [Example 40, N-[N-(3,4-dichlorophenyl)-L-alanyl]-(S)-2-aminohexanamide]"
7,99 to 120,"CCCC[C@H](NC(=O)[C@H](C)Nc1nc2ccccc2s1)C(=O)OC [Example 48, N-[N-(benzothiazol-2-yl)-L-alanyl]-(S)-2-aminohexanoic acid methyl ester]"
8,184 to 186,"CCCC[C@H](N)C(=O)NC(=O)[C@H](C)Nc1ccc(Cl)c(Cl)c1 [Example 51, N-[N-(3,4dichlorophenyl)-L-alanyl]-(S)-2-aminohexanamide]"

# More lines, now with the values behind:
row,Compound,melting point [°C]
1,"CC(Nc1ccc(Cl)c(Cl)c1)C(=O)NC(=O)[C@@H](N)C(C)C (mixture of isomers) [Example 6, N-[N-(3,4dichlorophenyl)-D,L-alanyl]-L-valine amide]",156 to 158
2,"CC(Nc1ccc(Cl)c(Cl)c1)C(=O)N[C@H](C(=O)N(C)C)C(C)C (mixture of isomers) [Example 8, N-[N-(3,4-dichlorophenyl)-D,L-alanyl]-L-valine N,N-dimethyl amide]",145 to 160
3,"COC(=O)[C@H](Cc1c[nH]c2ccccc12)NC(=O)C(C)Nc1ccc(Cl)c(Cl)c1 (mixture of isomers) [Example 16, N-[N-(3,4dichlorophenyl)-D,L-alanyl]-L-tryptophan methyl ester]",54 to 66
4,"COC(=O)[C@H](CC(C)C)NC(=O)[C@H](C)Nc1ccc(Cl)c(Cl)c1 [Example 11, N-[N-(3,4dichlorophenyl)-L-alanyl]-L-leucine methyl ester]",120 to 132
5,"COC(=O)[C@H](Cc1ccccc1)NC(=O)[C@H](C)Nc1ccc(Cl)c(Cl)c1 [Example 12, N-[N-(3,4-dichlorophenyl)-L-alanyl]-L-phenylalanine methyl ester]",122 to 124.5
6,"CCCC[C@H](NC(=O)[C@H](C)Nc1ccc(Cl)c(Cl)c1)C(=O)OC [Example 15, N-[N-(3,4dichlorophenyl)-L-alanyl]-(S)-2-aminohexanoic acid methyl ester]",163 to 165
